Results published in patent publication US20170056380A1, “Systems, Methods, Techniques, and Compounds in Research and Treatment of Portal Hypertension and other Conditions” (priority 2014, published 2017).

Columns and labels:
eNOS [1] = target: T1, eNOS (Rattus norvegicus, UniProt Q62600); test: NOS activity assay (conversion of L-[3H]arginine to L-[3H]citrulline) in sinusoidal endothelial cell lysates; format: cell-based; conditions: cicletanine 100 nM plus inhibitor
T1 construct: endogenous in cells; host or cells: primary liver sinusoidal endothelial cells from male Sprague-Dawley rats (normal or bile-duct-ligated)
T1 sequence (Q62600 1-1202): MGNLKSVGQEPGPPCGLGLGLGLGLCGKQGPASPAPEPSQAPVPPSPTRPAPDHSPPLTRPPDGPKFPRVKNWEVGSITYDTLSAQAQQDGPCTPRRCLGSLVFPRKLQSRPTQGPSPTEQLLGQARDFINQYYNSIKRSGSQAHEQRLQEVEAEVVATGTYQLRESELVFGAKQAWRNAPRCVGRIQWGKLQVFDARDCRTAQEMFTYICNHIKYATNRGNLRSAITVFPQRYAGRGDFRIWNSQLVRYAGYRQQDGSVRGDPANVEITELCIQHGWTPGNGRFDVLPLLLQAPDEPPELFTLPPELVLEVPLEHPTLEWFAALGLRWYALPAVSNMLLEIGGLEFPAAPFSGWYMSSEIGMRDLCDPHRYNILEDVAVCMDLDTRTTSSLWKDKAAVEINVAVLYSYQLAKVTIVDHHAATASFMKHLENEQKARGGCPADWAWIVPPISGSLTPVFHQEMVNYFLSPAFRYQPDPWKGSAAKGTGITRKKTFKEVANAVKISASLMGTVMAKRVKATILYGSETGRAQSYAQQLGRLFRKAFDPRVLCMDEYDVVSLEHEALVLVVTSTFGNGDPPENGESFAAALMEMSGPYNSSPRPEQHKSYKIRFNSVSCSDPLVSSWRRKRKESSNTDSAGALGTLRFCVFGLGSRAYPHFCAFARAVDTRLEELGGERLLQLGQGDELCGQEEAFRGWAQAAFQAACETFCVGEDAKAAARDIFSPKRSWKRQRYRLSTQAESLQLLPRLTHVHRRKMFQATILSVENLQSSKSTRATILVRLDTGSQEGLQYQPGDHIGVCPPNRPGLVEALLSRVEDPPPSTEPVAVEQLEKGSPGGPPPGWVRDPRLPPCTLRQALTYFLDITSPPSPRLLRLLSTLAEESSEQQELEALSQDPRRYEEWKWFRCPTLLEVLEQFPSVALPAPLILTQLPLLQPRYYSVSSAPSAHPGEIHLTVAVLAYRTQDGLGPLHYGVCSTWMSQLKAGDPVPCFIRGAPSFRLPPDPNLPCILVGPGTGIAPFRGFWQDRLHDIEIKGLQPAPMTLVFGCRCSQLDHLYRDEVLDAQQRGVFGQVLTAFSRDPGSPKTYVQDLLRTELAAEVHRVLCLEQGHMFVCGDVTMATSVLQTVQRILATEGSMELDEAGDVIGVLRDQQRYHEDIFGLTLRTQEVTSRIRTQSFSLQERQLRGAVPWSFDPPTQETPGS
Description: (§1) Cell isolation and culture. Sinusoidal endothelial cells were isolated from male Sprague-Dawley rats (450-500 g) (Harlan, Indianapolis, Ind.). In brief, after in situ perfusion of the liver with 20 mg/100 mg pronase (Roche Molecular Biochemicals, Indianapolis, Ind.), followed by collagenase (Worthington Biochemical, Lakewood, N.J.), dispersed cell suspensions were removed from a layered discontinuous density gradient of 8.2 and 15.6% Accudenz (Accurate Chemical and Scientific, Westbury, N.Y.), further purified by centrifugal elutriation (18 ml/min flow), and were grown in medium containing 20% serum (10% horse/calf). The purity of endothelial cells was documented by their uptake of fluorescently labeled di-l-acetoacetylated low-density lipoprotein as described (21). Only primary sinusoidal endothelial isolates of >95% purity were used for study. Experiments were performed with cells frorrr a minimum three different isolations (for all experiments).
(§2) Animal model of liver injury and portal hypedension. Liver injury and portal hypertension were induced by performing bile duct ligation in 450- to 500-gram male retired breeder Sprague-Dawley rats as described in Liu and 20- to 25-gram male BALB/c mice. Briefly, bile duct ligation was performed by surgical isolation and ligation of the common bile duct. This model creates a portal-based fibrogenic response and portal hypertension 10-14 days after surgery (Liu). For study of injured sinusoidal endothelial cells, we used the rat model of bile duct ligation (10-14 days postsurgery); for in vivo study (primarily to conserve the use of active compound), we used the mouse model of bile duct ligation (examining portal pressure 4 wk postsurgery). In sham-operated rats or mice, laparotomy without isolation and section of the bile duct was performed. Studies were approved by the local Institutional Animal Care and Use Committees. Portal pressure measurement. Portal hypertension was induced in male BALB/c mice by bile duct ligation as above. Cicletanine (5 mg·kg^−1·day^−1) or vehicle was given by gavage as a single daily dose for 10 days before portal pressure measurement as described in Liue. In brief, mice were anesthetized, and an intravenous catheter (Becton Dickinson Vascular Access, Sandy, Utah) was introduced in the portal vein and secured with a silk tie. A calibrated low-pressure transducer (Digi-Med, Louisville, Ky.) was connected to the portal vein catheter, and portal pressure was recorded continuously using the Digi-Med Integrator 200 System (Digi-bled).
NOS activity assay. NOS activity from sinusoidal endothelial cell lysates was assessed by measuring the conversion of L-[3H]arginine to L-[3H]citrulline as described (6) per the manufacturer's instructions (Cayman Chemical). In brief, triplicate samples of cell lysates were incubated with a reaction buffer containing 3 pmol of L-[3H]arginine (45 Ci/mmol), 0-50 μM arginine, 1 mM NADPH, 100 nM calmodulin (CaM), 2 mM CaCl2, and 30 μM BH4 in a volume of 50-100 μl at room temperature for 30 min and at 37° C. for an additional 30 min in the presence and absence of 1 mM NG-nitro-L-arginine methyl ester (L-NAME). […] Radiolabeled counts per minute of generated L-citrulline were measured and used to determine L-NAME-inhibitable NOS activity (thus, each experiment included total counts and background counts). […] The reductase activities of sinusoidal endothelial cells with or without cicletanine exposure were determined using the NADPH-dependent cytochrome c assay. […]

protein kinase G (PKG) = test: Phospho-VASP immunoblotting for PKG activity in stellate cells alone or cocultured with sinusoidal endothelial cells; format: cell-based, rat; conditions: coculture, L-NAME 1 μM 4 h, then cicletanine 100 nM
Description: For coculture experiments, freshly isolated stellate cells and freshly isolated sinusoidal endothelial cells were isolated separately and mixed together on collagen-coated plates and cultured for 5 days. Sinusoidal endothelial cells were plated at a density of 200,000 cells/cm2, and stellate cells were at a density of 65,000 cells/cm2.
(§3) Immunoblotting, Immunoblotting was performed by using specified primary antibodies, including anti-eNOS antibody (1:1,000; BD Transduction Laboratories, San Jose, Calif.), anti-phospho-eNOS-Ser^1177 (1:1,000; BD Transduction Laboratories or Cell Signaling Technology), anti-phospho-Akt, anti-Akt (Cell Signaling Technology, Beverly, Mass.), and horseradish peroxidase-conjugated secondary antibody. Specific signals were visualized using enhanced chemiluminescence as per the manufacturer's instructions and were scanned and quantitated with standard software.

[2] = tested on: NO production in sinusoidal endothelial cells; test: NO measurement (nitrite in conditioned medium of sinusoidal endothelial cells); format: cell-based, rat; conditions: for effect on cicletanine-induced NO production: PD-98059 10 μM 30 min, then cicletanine 100 nM 2 h
Description: as §1, §2
NO measurement. To assess NO production, we analyzed the release of nitrite, the stable breakdown product of NO, using a nitrite/nitrate assay kit (Cayman Chemicals, Ann Arbor, Mich.), following the manufacturer's instructions. Briefly, conditioned medium from sinusoidal endothelial cells with or without cicletanine treatment were loaded on a 96-well plate and mixed with both enzyme cofactor and nitrate reductase. After incubation at room temperature for 3 h, 100 μl Griess reagent mix were added to each well. After 10 more minutes at room temperature, the absorbance of each well was determined on a microplate reader at 540 nm, and the nitrite concentrations were deduced from a standard curve.

eNOS [3] = test: eNOS phosphorylation (Ser1177) and total eNOS by immunoblotting in sinusoidal endothelial cells; format: cell-based, rat; conditions: PD-98059 10 μM 30 min, then cicletanine 100 nM 2 h
Description: as §1, §3, §2

## COC(=O)[C@@H](N)CCCNC(=N)N[N+](=O)[O-] [L-NAME, NG-nitro-L-arginine methyl ester]
eNOS [1]
  effect on cicletanine-induced eNOS activity: inhibitable
Protein kinase G (PKG)
  effect on cicletanine-stimulated VASP phosphorylation: inhibited
[2]; L-NAME 1 μM preexposure 4 h, then cicletanine 2 h
  effect on nitrite production: inhibited

## COc1cccc(-c2cc(=O)c3ccccc3o2)c1N [PD-98059]
eNOS [3]
  effect on cicletanine-induced eNOS phosphorylation: blocked
eNOS [3]; listed as PD-098059
  effect on cicletanine-induced eNOS phosphorylation: abolished
[2]
  effect on cicletanine-induced NO production: blocked
[2]; listed as PD-098059
  effect on cicletanine-induced NO production: abolished

## Cc1ncc2c(c1O)COC2c1ccc(Cl)cc1 (centres unmarked) [S-cicletanine]
[2]; comparison of isomers
  production of nitrite, (+) isomer compared with (−) isomer: more effective than the (−) isomer of cicletanine
